A short description of data set [1]: Solubility (physicochemical properties).
Data set [2] concerns MRSA ngs1 (methicillin-resistant strain of Staphylococcus aureus). The data set can be described thus: Antibacterial spectrum, standard serial dilution method in liquid medium. It counts as cell-based. To be noted: bacto-yeast nitrogen base-glucose-NZ-amine liquid medium, read-out: Minimum growth inhibitory concentration. As for the experimental part: (§1) The antibacterial spectra of a bispolide A compound and a bispolide B compound were tested on a liquid medium consisting of bacto-yeast nitrogen base (a product of Difco Laboratories)-glucose-NZ-amine by a standard serial dilution method.

Data set [3] deals with Bacillus subtilis PCI 219. The description is as above. Conditions: PCI219, bacto-yeast nitrogen base-glucose-NZ-amine liquid medium, read-out: Minimum growth inhibitory concentration. It counts as cell-based. As for the experimental part: as §1
For data set [4], the system named is MRSA ngs2 (methicillin-resistant strain of Staphylococcus aureus). The description is as above. It is filed as cell-based. Conditions: bacto-yeast nitrogen base-glucose-NZ-amine liquid medium, read-out: Minimum growth inhibitory concentration. The method, then: as §1
The subject of data set [5] is Staphylococcus aureus FDA209P. The description is as above. It is filed as cell-based. Conditions: bacto-yeast nitrogen base-glucose-NZ-amine liquid medium, read-out: Minimum growth inhibitory concentration. As for the experimental part: as §1
[6] abbreviates: in 50% aqueous ethanol (ethanol:water 1:1 by volume).
The mark [7] stands for this setting: in methanol, ethanol, dimethylsulfoxide (DMSO), acetone and ethyl acetate.

Converted amounts (≈) assume the structure as drawn. Where only a bound is given, the exact number is not on record here.

With `CCC1=C\C=C\C(CC)C(C(C)C(O)CC2(O)CC(OC3CC(O)C(O)C(C)O3)C(CC)C(C)O2)OC(=O)/C=C/C(CC)=C/C=C/C(CC)C(C(C)C(O)CC2(O)CC(OC3CC(O)C(O)C(C)O3)C(CC)C(C)O2)OC(=O)\C=C\1` (stereo not shown) [bispolide A1], the Solubility result in data set [1] (setting [6]) was “sparlingly soluble”; in data set [1] (setting [7]) it was “Soluble well”; in data set [1] (in water and n-hexane), “insoluble”. The MIC in data set [2] is 12.5 µg/mL (≈ 11 µM); in data set [3], 0.39 µg/mL (≈ 0.344 µM); in data set [4], no more than 0.049 µg/mL; in data set [5], 1.56 µg/mL (≈ 1.38 µM).

For the molecule `CCC1=C\C=C\C(CC)C(C(C)C(O)CC2(OC)CC(OC3CC(O)C(O)C(C)O3)C(CC)C(C)O2)OC(=O)/C=C/C(CC)=C/C=C/C(CC)C(C(C)C(O)CC2(O)CC(OC3CC(O)C(O)C(C)O3)C(CC)C(C)O2)OC(=O)\C=C\1` (stereo not shown) [bispolide A2], the Solubility result in data set [1] (setting [6]) was “sparlingly soluble”; in data set [1] (setting [7]), “Soluble well”; in data set [1] (in water and n-hexane), “insoluble”. Besides, the MIC in data set [2] came to 1.56 µg/mL (≈ 1.36 µM); in data set [3], 0.78 µg/mL (≈ 0.68 µM); in data set [4], 3.13 µg/mL (≈ 2.73 µM); in data set [5] it was 1.56 µg/mL (≈ 1.36 µM).

As for `CCC1=C\C=C\C(CC)C(C(C)C(O)CC2(OC)CC(OC3CC(O)C(O)C(C)O3)C(CC)C(C)O2)OC(=O)/C=C/C(CC)=C/C=C/C(CC)C(C(C)C(O)CC2(OC)CC(OC3CC(O)C(O)C(C)O3)C(CC)C(C)O2)OC(=O)\C=C\1` (stereo not shown) [bispolide A3], the Solubility entry in data set [1] (setting [6]) is listed as “sparlingly soluble”; in data set [1] (setting [7]) it was “Soluble well”; in data set [1] (in water and n-hexane), “insoluble”. In addition, the MIC in data set [2] is 1.56 µg/mL (≈ 1.34 µM); in data set [3], 0.78 µg/mL (≈ 0.672 µM); in data set [4], 3.13 µg/mL (≈ 2.69 µM); in data set [5], 1.56 µg/mL (≈ 1.34 µM).

Turning to `CCC1=C\C=C\C(CC)C(C(C)C(O)CC2(O)CC(OC3OC(C)C(O)C(O)C3O)C(CC)C(C)O2)OC(=O)/C=C/C(CC)=C/C=C/C(CC)C(C(C)C(O)CC2(O)CC(OC3CC(O)C(O)C(C)O3)C(CC)C(C)O2)OC(=O)\C=C\1` (stereo not shown) [bispolide B1], the Solubility result is on record as “sparingly soluble” in data set [1] (setting [6]); “Soluble well” in data set [1] (setting [7]); “insoluble” in data set [1] (in water and n-hexane). The MIC was 0.39 µg/mL (≈ 0.339 µM) in data set [2], 0.2 µg/mL (≈ 0.174 µM) in data set [3], no more than 0.049 µg/mL in data set [4] and 1.56 µg/mL (≈ 1.36 µM) in data set [5].

As for `CCC1=C\C=C\C(CC)C(C(C)C(O)CC2(OC)CC(OC3CC(O)C(O)C(C)O3)C(CC)C(C)O2)OC(=O)/C=C/C(CC)=C/C=C/C(CC)C(C(C)C(O)CC2(O)CC(OC3OC(C)C(O)C(O)C3O)C(CC)C(C)O2)OC(=O)\C=C\1` (stereo not shown) [bispolide B2a], the Solubility entry is reported as “sparingly soluble” in data set [1] (setting [6]); “Soluble well” in data set [1] (setting [7]); “insoluble” in data set [1] (in water and n-hexane). Besides, the MIC in data set [2] was determined as 1.56 µg/mL (≈ 1.34 µM); in data set [3] it was 0.39 µg/mL (≈ 0.335 µM); in data set [4], 1.56 µg/mL (≈ 1.34 µM); in data set [5], 1.56 µg/mL (≈ 1.34 µM).

With `CCC1=C\C=C\C(CC)C(C(C)C(O)CC2(OC)CC(OC3OC(C)C(O)C(O)C3O)C(CC)C(C)O2)OC(=O)/C=C/C(CC)=C/C=C/C(CC)C(C(C)C(O)CC2(O)CC(OC3CC(O)C(O)C(C)O3)C(CC)C(C)O2)OC(=O)\C=C\1` (stereo not shown) [bispolide B2b], the Solubility entry in data set [1] (setting [6]) was “sparingly soluble”; in data set [1] (setting [7]), “Soluble well”; in data set [1] (in water and n-hexane), “insoluble”. The MIC in data set [2] is 1.56 µg/mL (≈ 1.34 µM); in data set [3] it was 0.39 µg/mL (≈ 0.335 µM); in data set [4], 3.13 µg/mL (≈ 2.69 µM); in data set [5], 0.78 µg/mL (≈ 0.67 µM).

Consider `CCC1=C\C=C\C(CC)C(C(C)C(O)CC2(OC)CC(OC3OC(C)C(O)C(O)C3O)C(CC)C(C)O2)OC(=O)/C=C/C(CC)=C/C=C/C(CC)C(C(C)C(O)CC2(OC)CC(OC3CC(O)C(O)C(C)O3)C(CC)C(C)O2)OC(=O)\C=C\1` (stereo not shown) [bispolide B3], for which the Solubility result is “sparingly soluble” in data set [1] (setting [6]); “Soluble well” in data set [1] (setting [7]); “insoluble” in data set [1] (in water and n-hexane). The MIC in data set [2] was 1.56 µg/mL (≈ 1.32 µM); in data set [3], 0.78 µg/mL (≈ 0.662 µM); in data set [4], 3.13 µg/mL (≈ 2.66 µM); in data set [5], 1.56 µg/mL (≈ 1.32 µM).

(Values after US8318684B2, “Antibiotics, bispolides A1, A2, and A3 as well as bispolides B1, B2a, B2b and B3 and processes for producing said antibiotics” (Nimura Genetic Solutions Co., Ltd., priority 2006, dated 2012).)
